From US20260191825A1, “CONTRACEPTIVE COMPOUNDS AND DOSING FOR THE SAME” (YourChoice Therapeutics, Inc., priority 2024, published 2026)
“Also recorded” adds a separate entry of the source.

Legend:
CYP2D6 = CYP2D6 (Homo sapiens, UniProt P10635); experiment: In vitro CYP inhibition (direct and time-dependent), CYP2D6; type: in vitro ADME
Excerpt: However, the likelihood of drug interactions is low since healthy participants who meet eligibility criteria will be enrolled in this Phase 1b/2a clinical trial. An allowance for select concomitant medications may be considered for select participants at the discretion of the investigator and/or sponsor if drug profiles are not anticipated to interact with Compound A. Such medications may include, but will not be limited to paracetamol or ibuprofen as assessed by both the PI and the Sponsor. […] Additional precautions to avoid grapefruit, pomegranates, star fruit, or Seville oranges for 7 days prior to admission, and juices and products containing these fruits for the duration of the study will be taken.

sperm counts = experiment: Phase 1b MAD study (Part 1), 28-day dosing, sperm counts; type: in vivo, human; settings: men dosed for 4 weeks (28 oral doses) at doses of up to 90 mg
Excerpt: The main underlying reason provided by experts in the male contraceptive field is the dosing duration. Dosing for 28 days in men only covers approximately one third of the entire cycle from sperm production to sperm release, which takes 85 days in men (71 days for one spermatogenic cycle and 14 days for epididymal transit). […] Therefore, the dosing period will be extended from 28 days to 90 days with the anticipation that this will show the intended effect (reduction in sperm concentration).
Cohort 4 (receiving 180 mg) is currently being studied.

[1] = Phase 1a single ascending oral dose study, PK; settings: male, human, in vivo, fasted, geometric mean; for AUC(0-t): po
hERG = hERG (Homo sapiens, UniProt Q12809); experiment: hERG GLP safety pharmacology study
Sequence of hERG (Q12809 whole entry): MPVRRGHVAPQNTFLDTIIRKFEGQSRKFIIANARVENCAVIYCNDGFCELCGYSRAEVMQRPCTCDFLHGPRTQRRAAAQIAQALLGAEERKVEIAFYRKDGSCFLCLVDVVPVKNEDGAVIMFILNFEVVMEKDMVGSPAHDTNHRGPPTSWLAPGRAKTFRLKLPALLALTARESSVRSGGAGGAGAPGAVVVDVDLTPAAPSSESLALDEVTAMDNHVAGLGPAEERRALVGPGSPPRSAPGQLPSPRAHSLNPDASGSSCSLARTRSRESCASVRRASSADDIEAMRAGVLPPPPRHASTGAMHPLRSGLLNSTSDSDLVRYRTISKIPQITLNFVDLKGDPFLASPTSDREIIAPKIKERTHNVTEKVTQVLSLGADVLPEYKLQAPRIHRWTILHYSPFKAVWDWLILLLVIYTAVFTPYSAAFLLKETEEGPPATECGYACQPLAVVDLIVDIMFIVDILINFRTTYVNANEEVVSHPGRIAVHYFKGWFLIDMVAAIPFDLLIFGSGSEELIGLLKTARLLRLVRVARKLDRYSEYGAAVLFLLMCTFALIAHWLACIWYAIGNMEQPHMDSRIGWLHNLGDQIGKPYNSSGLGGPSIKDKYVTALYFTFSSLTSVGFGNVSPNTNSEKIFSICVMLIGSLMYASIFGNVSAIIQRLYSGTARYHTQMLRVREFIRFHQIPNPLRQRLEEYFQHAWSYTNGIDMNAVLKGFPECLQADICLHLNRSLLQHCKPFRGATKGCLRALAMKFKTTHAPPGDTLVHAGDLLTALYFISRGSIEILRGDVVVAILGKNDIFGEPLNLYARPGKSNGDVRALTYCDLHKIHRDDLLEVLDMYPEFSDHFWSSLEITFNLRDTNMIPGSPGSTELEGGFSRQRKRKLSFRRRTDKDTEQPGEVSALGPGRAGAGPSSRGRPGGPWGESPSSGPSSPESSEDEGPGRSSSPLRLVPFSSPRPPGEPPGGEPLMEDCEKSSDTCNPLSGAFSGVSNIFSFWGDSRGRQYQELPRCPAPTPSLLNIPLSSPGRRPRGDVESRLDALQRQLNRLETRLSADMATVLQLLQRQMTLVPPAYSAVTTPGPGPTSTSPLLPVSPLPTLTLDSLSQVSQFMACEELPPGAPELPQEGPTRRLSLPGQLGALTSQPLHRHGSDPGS

male Cynomolgus macaques = experiment: NHP repeat dose non-GLP efficacy study (sperm counts, MABEL); type: in vivo, cynomolgus macaque
Experimental: Animals and husbandry. Six (6) sexually mature, non-naïve male Cynomolgus macaques (8-15 years, 6-15 kg) were used. The animals were individually housed in a humidity- and temperature-controlled facility under a 12 h light/12 h dark diurnal cycle with two daily meals and water ad libitum. The animals were provided with cage toys and daily fresh fruits for environmental enrichment. The animals were acclimated for 2 weeks and observed twice daily to assess overall health and behavior. The animal use protocol was approved by WuXi App Tec's IACUC per the Association for Assessment and Accreditation of Laboratory Animal Care (AAALAC) guideline. The conduct of the study followed the Guidance for the Care and Use of Laboratory Animals (NRC 2011, 8th Edition), with a USDA Category C for the pain and distress level. The humane endpoints included: significant body weight drop of 20% within 7 days, severe adverse effort associated with the administration of the test article, pain and distress caused by any of the in-life procedures, and injury sustained during any time of the experiment that could impact the well-being of the animal (all determined by attending veterinarian). All animals were non-naïve and only animals that had normal hematology and serum chemistry parameters, and normal baseline sperm counts were included in the studies. After the end of the study, all animals were returned to the colony. Confounders were not controlled.
Dosing regimens. […] The formulation (Compound A in saline) was prepared freshly each day of dosing. […] Repeat dose administration: Three (3) Cohort 1 animals were dosed at 0.5 mg/kg/day (Day 1-46) followed by 1.5 mg/kg/day (Day 47-51), 2.5 mg/kg/day (Day 52-101) and 5 mg/kg/day (Day 102-108). Three (3) Cohort 2 animals were dosed at 5 mg/kg/day (Day 1-30) followed by 7.5 mg/kg/day (Day 31-37). No control animals were used in the single and repeat dose studies. Since bioavailability was assessed at time point zero in the PK study and sperm parameters were assessed at pre-dose in the efficacy studies, each animal served as its own control.
Semen collection and sperm count/concentration assessment. Semen samples were obtained once per week or once every other week via electroejaculation during the entire repeat dose study periods from all 3 animals per Cohort to assess sperm concentration and count. Samples were left at room temperature for 30 min to allow for liquefication. Liquefied semen was diluted with 3% NaCl solution for manual sperm count assessment using a hemocytometer. All samples were analyzed in triplicates. Sperm concentration per ejaculate was calculated with the following formula: Sperm concentration=Sperm count×104×Dilution factor. No data point was excluded from the analysis.
Testicular biopsy collection and histology. Testicular biopsies (2 per animal; one from the right and one from the left testicle) were taken 24 h after administering the last dose and on the last day of the recovery period from all 3 animals per Cohort to assess morphological changes. Preoperative care of animals consisted of food restriction and general examination. All surgical procedures were conducted using aseptic techniques and comprehensive physiologic monitoring. The animals were anesthetized with Zoletil 50 (5 mg/kg) by intramuscular (i.m.) injection. The scrotum was disinfected with iodine and 75% alcohol, and lidocaine (1%) was administered intradermally at the biopsy needle insertion site. Core biopsies (one per testis) were collected with a 16 G TSK starcut biopsy needle. Immediately after biopsy collection, animals received Meloxicam (0.2 mg/kg) and Ketorolac (10 mg) for pain relief, and Ceftriaxone sodium (0.5 g) as […] (all via i.m. injection). Meloxicam was given once daily for 3 consecutive days, Ketorolac twice daily for 2 days, and Ceftriaxone sodium once daily for 4 days post-collection. […]

healthy vasectomized men = experiment: Phase 1a single ascending oral dose study, safety and tolerability; type: in vivo, human
Experimental: The doses tested under fasting conditions were 10, 30, 90 and 180 mg. […] Cohort 1 first received 10 mg, and after a 5-week washout period received 30 mg. Cohort 2 received 90 mg followed by 180 mg after a 5-week washout period.

[2] = Dog GLP 28-day repeat-dose study, PK at the NOAEL; settings: male, Beagle, in vivo, 5 mg/kg, 5 mg/kg (NOAEL); for AUC(0-t): AUC0-24, dog

Sequence of CYP2D6 (P10635 whole entry): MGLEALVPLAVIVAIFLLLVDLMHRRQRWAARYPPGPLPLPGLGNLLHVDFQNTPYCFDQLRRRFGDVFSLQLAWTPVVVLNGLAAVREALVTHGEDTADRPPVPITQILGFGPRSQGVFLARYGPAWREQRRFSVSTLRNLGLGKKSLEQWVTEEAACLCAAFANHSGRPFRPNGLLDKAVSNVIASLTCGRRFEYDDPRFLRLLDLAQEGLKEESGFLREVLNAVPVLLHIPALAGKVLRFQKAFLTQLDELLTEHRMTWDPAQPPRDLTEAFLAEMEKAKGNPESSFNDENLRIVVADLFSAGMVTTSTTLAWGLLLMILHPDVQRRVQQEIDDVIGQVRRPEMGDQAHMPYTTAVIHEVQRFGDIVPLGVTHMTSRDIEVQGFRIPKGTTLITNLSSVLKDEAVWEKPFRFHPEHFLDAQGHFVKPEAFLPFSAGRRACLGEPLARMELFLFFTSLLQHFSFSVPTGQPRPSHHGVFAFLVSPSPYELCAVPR

Cc1ccc(C2=CC(C)(C)Oc3ccc(-c4ccc(-c5ccc(C(=O)O)cc5)[nH]4)cc32)cc1 [Compound A]
IC50 (CYP2D6; CYP2D6): > 100 µM
Time-dependent inhibition (TDI) (CYP2D6; CYP2D6, 0.3 to 100 μM): NADPH-independent time-dependent inhibition
Effect on sperm counts (sperm counts): not sufficient to decrease sperm counts; also recorded: firm evidence of sperm reduction has not been observed; also recorded: have not been replicated
AUC(0-t) ([1]; 10 mg, single oral dose 10 mg, read-out: AUC0-24): 2380 ng·h/mL
AUC(0-t) ([1]; 10 mg, single oral dose 10 mg, read-out: AUC0-last): 8180 ng·h/mL
AUC(0-t) ([1]; 30 mg, single oral dose 30 mg, read-out: AUC0-24): 3520 ng·h/mL
AUC(0-t) ([1]; 30 mg, single oral dose 30 mg, read-out: AUC0-last): 12400 ng·h/mL
AUC(0-t) ([1]; 90 mg, single oral dose 90 mg, read-out: AUC0-24): 8430 ng·h/mL
AUC(0-t) ([1]; 90 mg, single oral dose 90 mg, read-out: AUC0-last): 26300 ng·h/mL
AUC(0-t) ([1]; 180 mg, single oral dose 180 mg, read-out: AUC0-24): 27300 ng·h/mL
AUC(0-t) ([1]; 180 mg, single oral dose 180 mg, read-out: AUC0-last): 73400 ng·h/mL
AUC(0-inf) ([1]; single oral dose 10 mg): 9560 ng·h/mL
Cmax ([1]; single oral dose 10 mg): 131 ng/mL
half-life ([1]; single oral dose 10 mg): 53.5 h
AUC(0-inf) ([1]; single oral dose 30 mg): 12900 ng·h/mL
Cmax ([1]; single oral dose 30 mg): 200 ng/mL
half-life ([1]; single oral dose 30 mg): 61.7 h
AUC(0-inf) ([1]; single oral dose 90 mg): 26800 ng·h/mL
Cmax ([1]; single oral dose 90 mg): 472 ng/mL
half-life ([1]; single oral dose 90 mg): 71.3 h
AUC(0-inf) ([1]; single oral dose 180 mg): 75400 ng·h/mL
Cmax ([1]; single oral dose 180 mg): 1750 ng/mL
half-life ([1]; single oral dose 180 mg): 76.3 h
Main outcomes: hERG (hERG): Clean
HED (based on BSA) of MABEL (male Cynomolgus macaques; NHP): 0.8 mg/kg
HED for 60 kg BW of MABEL (male Cynomolgus macaques; NHP): 48 mg
HED for 80 kg BW of MABEL (male Cynomolgus macaques; NHP): 64 mg
MABEL (male Cynomolgus macaques; NHP, 49-day repeat dose non-GLP): 2.5 mg/kg/day
Lowest dose with decreases in sperm counts (male Cynomolgus macaques; NHP, repeat dose for 7 weeks): 2.5 mg/kg/day
Reversibility of antispermatogenic effect (male Cynomolgus macaques; NHPs): 1.5-3.5 spermatogenic cycles
Adverse event possibly related to study treatment (healthy vasectomized men; after the 30 mg dose): decreased sex drive in 1 participant
Adverse event possibly related to study treatment (healthy vasectomized men; after the 180 mg dose, Holter monitoring, 1 participant): asymptomatic cardiac arrhythmia of low clinical concern
Serious adverse events (SAEs) (healthy vasectomized men; single doses 10, 30, 90, 180 mg, fasting): no serious adverse events
Adverse events classified as possibly related to study treatment (number) (healthy vasectomized men; single doses 10-180 mg): two
Safety and tolerability (healthy vasectomized men; single doses up to 180 mg, fasted state, healthy volunteers): safe and well tolerated
AUC(0-t) ([2]; Day 1, mean): 43800 ng·h/mL
AUC(0-t) ([2]; Day 28, mean): 80800 ng·h/mL
Cmax ([2]; Day 1, n = 9, mean): 3410 ng/mL
Cmax ([2]; Day 28, mean): 4800 ng/mL
half-life ([2]; T1/2, dog, Day 1, median): 13.9 h
Tmax ([2]; Tmax, Day 28, median): 2 h
